Test results published in PMC4645123, “Catestatin attenuates endoplasmic reticulum induced cell apoptosis by activation type 2 muscarinic acetylcholine receptor in cardiac ischemia/reperfusion” (Scientific Reports, 2015).

Key:
isolated heart = experiment: Langendorff-perfused heart, global ischemia/reperfusion (I/R) with CST pretreatment; design: species or system rat; conditions: AF-DX116 pretreating for 20 min before CP, then I/R
Method: Rats fed a standard diet were heparinized (200 IU) and anesthetized with sodium pentobarbital (50 mg/kg, intraperitoneally). Hearts were excised and rapidly moved to a Langendorff perfusion system as described. After 30-min stabilization, hearts underwent 30-min normoxia, zero-flow global ischemia for 30 min, followed by 60-min reperfusion (I/R group). For the CP group, CST (100 nM) was infused for 15 min before ischemia (Fig. 1A). Cardiac function including left ventricular end diastolic pressure (LVEDP), LV systolic pressure (LVSP), and maximal and minimal LV pressure development (±dp/dtmax) were recorded. […] Images in each slice were analyzed by image pro plus software. The volume of infarcted tissue (white) and the risk zone (total) was then calculated by each area […] slice thickness and summing the results. The infarct size was expressed as the percentage of the risk zone[36]. Total 12 rats were sacrificed for the infarct size assay. Other rats, while finished I/R procedure, the apex of heart (about 100 mg) was quickly removed for western blot assay. The residual heart were cut about 5 mm high (from the site of apex), embedded with OCT then the frozen slice were prepared for apoptosis staining (Methods of western blot and apoptosis assay are available in the Supplementary methods online).

H9c2 cells = experiment: cAMP assay (cAMP-Glo Max Assay Kit); type: cell-based, rat; conditions: for effect of antagonist on CST lowering of isoproterenol-induced cAMP / effect of antagonist on CST lowering of forskolin-induced cAMP: AF-DX116 100 nM or himbacine 1 μM 20 min; for effect of antagonist on CST lowering of isoproterenol-induced cAMP: then CST 50 nM with isoproterenol 1 μM; for effect of antagonist alone on increased cAMP level with isoproterenol: AF-DX116 100 nM or himbacine 1 μM, 20 min pretreatment, isoproterenol 1 μM; for effect of antagonist on CST lowering of forskolin-induced cAMP: pirenzepine 1 μM, then CST 50 nM with forskolin 100 μM
Method: H9c2 cells were subcultured at 1 x 10^4 cells in 96-well plates. Cell were pretreated with […]
pirenzepine (1 μM), AF-DX116 (100 nM) or himbacine (1 μM) for 20 min, then incubated with CST (50 nM) or carbamoylcholine (100 μM) along with isoproterenol (1 μM) or forskolin (100 μM) for 30 min. Cell underwent cAMP assay with the cAMP-Glo Max Assay

M2 receptors = conditions: no reference given; cited from earlier work
Method: To investigate the interaction of CST with M2 receptor and as an endogenous ligand, we used radioactive isotope [^125-I]-labeled CST (0.4 μM) as a ligand, and N-methylscopolamine (NMS:0.045 nM to 0.3 μM) as a “cold” ligand were co-incubated with membrane protein (200 μg) in H9c2 cardiomyblasts.

M2 receptor = conditions: read-out: KD values, binding ability to M2 receptor; cited from earlier work
From the text: Muscarinic receptor expression is abundant in ventricular muscle. Acetylcholine has protective role in cardiac I/R in vitro, but it is non-selective ligand and activates all cholinergic receptor subtype, which limited its application due to enormous side effects. Here we identified that CST is a selective ligand of M2 receptor with high affinity and its intracellular signal (cAMP, PI3 K and ERK1/2) is consistent with M2 receptor agonist.

H9c2 cardiomyoblasts = experiment: Apoptosis (cleaved caspase-3 staining) in cells under A/R or ER stress inducers; type: cell-based, rat; conditions: PD98059 20 μM or wortmannin 10 nM for 30 min, then CST 100 nM 30 min
Method: H9c2 rat cardiomyoblasts or neonatal cardiomyocytes were cultured in DMEM with 10% fetal bovine serum (FBS) and 1% penicillin/streptomycin at 37 °C, 5% CO2. Medium was changed to fresh medium (serum-free), and cells were cultured under anoxia with 95% N2 and 5% CO2 for 12 h at 37 °C, then incubated in a standard incubator for 4 h (A/R)[38]. […] page 1: Catestatin attenuates endoplasmic reticulum induced cell apoptosis by activation type 2 muscarinic acetylcholine receptor in cardiac ischemia/reperfusion Feng Liao1*, Yang Zheng1*, Junyan Cai1, Jinghui Fan1, Jing Wang1, Jichun Yang1,2, Qinghua Cui1,2, Guoheng Xu1, Chaoshu Tang1, Bin Geng1,2 1. Department of Physiology and Pathophysiology, School of Basic Medical Science, Peking University, P.R. China. 2. Center for Noncoding RNA Medicine, Peking University Health Science Center Online Methods 1. Western blot analysis Cultured H9c2 cells or rat hearts were lysed in RIPA lysis buffer (Cell Signaling). Proteins were denatured and 50 μg protein was loaded and isolated by SDS-PAGE electrophoresis, then transferred to a nitrocellulose membrane. […] The antigens were detected by the chemiluminescence method (ECL western blot detection kit, Applygen) with horseradish peroxidase-linked anti-mouse or anti-rabbit secondary antibody. […] Images were captured by fluorescence microscopy and apoptotic cells were analyzed by use of Image-Pro Plus. […]

[1] = tested on: ischemic-reperfused rat heart; conditions: peptide 100 nM treatment for 2 h during reperfusion phase; cited from earlier work
Method: Firstly we identified the endogenous CST reducing after I/R, but its precursor ChgA expression were no changes. That means increased enzymes (which catalyzed ChgA to generate CST) activity during I/R, although the enzymes were not identified until now. CST pretreatment compensated to endogenous CST decrease, thus lowered the infarct size and improved cardiac function in rats under I/R, which agreed with studies of CST post-conditioning[16][17]. However, human wild type CST (100 nM) treatment for 2 h during reperfusion phase increased, but Gly^364Ser variant peptide lowered infarct size; becaus ...

[2] = target: T1, M2 muscarinic acetylcholine receptor (Rattus norvegicus, UniProt P10980); experiment: radioligand competition binding
T1 chain: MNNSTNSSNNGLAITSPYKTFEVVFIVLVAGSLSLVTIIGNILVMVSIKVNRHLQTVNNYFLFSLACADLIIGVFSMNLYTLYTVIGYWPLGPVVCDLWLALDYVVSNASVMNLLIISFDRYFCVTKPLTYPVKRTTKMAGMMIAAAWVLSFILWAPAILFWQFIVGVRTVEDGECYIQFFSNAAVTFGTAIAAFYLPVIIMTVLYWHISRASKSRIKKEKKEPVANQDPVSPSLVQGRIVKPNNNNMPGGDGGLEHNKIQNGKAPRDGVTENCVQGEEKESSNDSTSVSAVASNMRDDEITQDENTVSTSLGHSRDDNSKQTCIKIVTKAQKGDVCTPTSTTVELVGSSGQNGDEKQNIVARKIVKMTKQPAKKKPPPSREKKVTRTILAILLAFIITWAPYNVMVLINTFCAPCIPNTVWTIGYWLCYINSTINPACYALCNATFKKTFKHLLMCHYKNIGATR

[3] = target: T1, M2 muscarinic acetylcholine receptor; experiment: radioligand binding (Scatchard)

CCN(CC)CC1CCCCN1CC(=O)N1c2ccccc2C(=O)Nc2cccnc21 (centres unmarked) [AF-DX116, Otenzepad]
effect on the protective effects of CP on infarct size, LDH leakage and cTNI level (isolated heart): blocked | effect of antagonist on CST lowering of isoproterenol-induced cAMP (H9c2 cells): blocked | effect of antagonist alone on increased cAMP level with isoproterenol (H9c2 cells): did not affect | effect of antagonist on CST lowering of forskolin-induced cAMP (H9c2 cells): blocked | IC50 (M2 receptors): 50 nM

COc1ccc2cc3[n+](cc2c1OC)CCc1cc2c(cc1-3)OCO2 [Berberine]
Kd (M2 receptor): 5400 nM

COc1cccc(-c2cc(=O)c3ccccc3o2)c1N [PD98059]
effect of inhibitor on CST protection on cell apoptosis (H9c2 cardiomyoblasts): reversed

C[N+](C)(C)CCOC(N)=O [carbamoylcholine]
cAMP level induced by isoproterenol (H9c2 cells; CST 50 nM or carbamoylcholine 100 μM with isoproterenol 1 μM for 30 min): lowered

C[C@@H]1OC(=O)[C@H]2C[C@H]3CCCC[C@@H]3[C@@H](/C=C/[C@H]3CCC[C@H](C)N3C)[C@@H]12 [himbacine]
effect of antagonist on CST lowering of isoproterenol-induced cAMP (H9c2 cells): blocked | effect of antagonist alone on increased cAMP level with isoproterenol (H9c2 cells): did not affect | effect of antagonist on CST lowering of forskolin-induced cAMP (H9c2 cells): blocked

COC[C@H]1OC(=O)c2coc3c2[C@@]1(C)C1=C(C3=O)[C@@H]2CCC(=O)[C@@]2(C)C[C@H]1OC(C)=O [wortmannin]
effect of inhibitor on CST protection on cell apoptosis (H9c2 cardiomyoblasts): reversed

Gly^364Ser variant peptide: Gly364Ser variant of human catestatin
infarct size [1]: lowered

SSMKLSFRARGYGFRGPGPQL (AF-DX116 50 nM)
IC50 [2]: 36 nM | Kd [3]: 45.8 nM

SSMKLSFRARGYGFRGPGPQL
IC50 [2]: 25.7 nM | Kd [3]: 18.6 nM
